# In ChEMBL document CHEMBL3879915, “Methods of inhibiting PRMT5” (2014):
# How the values were obtained:
# [1] = molecular target: PRMT5/MEP50 complex (Homo sapiens, UniProt O14744); assay: Inhibition of recombinant human fetal brain FLAG-tagged PRMT5/full length human testis 6His-tagged MEP50 expressed in baculovirus infected insect Sf9 cells using human histone H4 (1 to 15 residues) as substrate preincubated for 30 mins followed by [3H]-SAM addition
# [2] = Antiproliferative activity against human Z138 cells assessed as inhibition of cell viability after 5 days by Cell-Titer Glo assay; assay type: functional, cell-based; conditions: Z-138, 120 h
# [3] = molecular target: Protein arginine N-methyltransferase 5 (Homo sapiens, UniProt O14744); assay: Inhibition of PRMT5 in human Z138 cells assessed as decrease in di-methyl arginine levels after 96 hrs by Western blot method; assay type: cell-based
# Protein arginine N-methyltransferase 5, sequence (O14744 whole entry): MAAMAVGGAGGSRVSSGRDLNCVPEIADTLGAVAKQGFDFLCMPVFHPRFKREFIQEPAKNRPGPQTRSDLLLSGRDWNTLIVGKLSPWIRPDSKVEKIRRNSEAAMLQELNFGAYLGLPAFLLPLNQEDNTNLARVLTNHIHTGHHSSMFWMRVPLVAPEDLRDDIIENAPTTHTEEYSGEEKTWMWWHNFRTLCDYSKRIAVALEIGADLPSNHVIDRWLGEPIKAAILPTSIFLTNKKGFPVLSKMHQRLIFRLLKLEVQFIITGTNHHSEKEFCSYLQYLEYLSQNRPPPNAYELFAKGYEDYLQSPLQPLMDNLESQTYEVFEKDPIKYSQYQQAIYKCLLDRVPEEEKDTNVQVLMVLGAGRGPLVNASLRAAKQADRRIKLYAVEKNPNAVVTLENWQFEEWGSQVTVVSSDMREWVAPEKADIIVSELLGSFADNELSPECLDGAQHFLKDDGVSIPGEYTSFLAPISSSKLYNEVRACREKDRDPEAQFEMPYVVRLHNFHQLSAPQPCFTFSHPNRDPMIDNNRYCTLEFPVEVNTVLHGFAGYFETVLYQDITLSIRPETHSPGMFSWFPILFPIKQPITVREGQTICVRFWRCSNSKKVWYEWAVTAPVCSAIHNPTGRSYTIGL
# PRMT5/MEP50 complex, sequence (O14744 whole entry, the tested form may be a part): as the sequence (O14744 whole entry) above
# PRMT5/MEP50 complex, sequence (Q9BQA1 whole entry, further chain, the tested form may be a part): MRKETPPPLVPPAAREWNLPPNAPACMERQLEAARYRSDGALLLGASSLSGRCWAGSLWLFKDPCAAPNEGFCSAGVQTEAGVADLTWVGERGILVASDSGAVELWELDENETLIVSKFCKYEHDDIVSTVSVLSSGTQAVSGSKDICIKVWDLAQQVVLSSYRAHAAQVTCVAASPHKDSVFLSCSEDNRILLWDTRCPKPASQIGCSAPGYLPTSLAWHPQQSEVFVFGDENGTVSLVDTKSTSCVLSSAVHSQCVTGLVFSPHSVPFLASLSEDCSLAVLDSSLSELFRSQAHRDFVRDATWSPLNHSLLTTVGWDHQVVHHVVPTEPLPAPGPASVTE
SMILES,IC50 [1],EC50 [2],EC50 [3]
OC(COCc1ccccc1)CN1CCc2ccccc2C1 (centres undefined),10000 to 40000 nM,> 40000 nM,–
OC(COCC1COc2ccccc2O1)CN1CCc2ccccc2C1 (centres undefined),101 to 40000 nM,> 40000 nM,–
CCN(c1cccc(C(=O)NCC(O)CN2CCc3ccccc3C2)c1)C1CCOCC1 (centres undefined),101 to 1000 nM,–,101 to 1000 nM
CC(=O)Nc1ccc(OCC(=O)NCC(O)CN2CCc3ccccc3C2)cc1 (centres undefined),101 to 1000 nM,> 20000 nM,101 to 1000 nM
COc1cccc(OCC(=O)NCC(O)CN2CCc3ccccc3C2)c1 (centres undefined),< 100 nM,1000 to 10000 nM,101 to 1000 nM
CC(Oc1ccccc1)C(=O)NCC(O)CN1CCc2ccccc2C1 (centres undefined),< 100 nM,1000 to 10000 nM,101 to 1000 nM
O=C(COc1ccccc1)NCC(O)CN1CCc2ccccc2C1 (centres undefined),101 to 1000 nM,–,101 to 1000 nM
COc1ccccc1OCC(=O)NCC(O)CN1CCc2ccccc2C1 (centres undefined),< 100 nM,1000 to 10000 nM,101 to 1000 nM
N#Cc1ccc(OCC(=O)NCC(O)CN2CCc3ccccc3C2)cc1 (centres undefined),101 to 1000 nM,10000 to 50000 nM,101 to 1000 nM
Cn1ncc2ccc(OCC(=O)NCC(O)CN3CCc4ccccc4C3)cc21 (centres undefined),< 100 nM,1000 to 10000 nM,101 to 1000 nM
OC(COCC1CCCCC1)CN1CCc2ccccc2C1 (centres undefined),1000 to 10000 nM,> 40000 nM,–
Cn1cnc2ccc(OCC(=O)NCC(O)CN3CCc4ccccc4C3)cc21 (centres undefined),–,10000 to 50000 nM,101 to 1000 nM
OC(COc1cccc(CNC2CCCC2)c1)CN1Cc2ccccc2C1 (centres undefined),1000 to 10000 nM,10000 to 50000 nM,–
CN1CCC(OCC(O)CN2CCc3ccccc3C2)CC1 (centres undefined),> 40000 nM,> 40000 nM,–
O=C(COc1ccccc1S(=O)(=O)N1CCOCC1)NCC(O)CN1CCc2ccccc2C1 (centres undefined),< 100 nM,–,101 to 1000 nM
O=C(COc1ccccc1N1CCOCC1)NC[C@@H](O)CN1CCc2ccccc2C1,101 to 1000 nM,–,101 to 1000 nM
O=C(CNc1ccccc1)NCC(O)CN1CCc2ccccc2C1 (centres undefined),1000 to 10000 nM,> 20000 nM,1000 to 10000 nM
CC(C)(C)OC(=O)N1CCC(OCC(O)CN2CCc3ccccc3C2)CC1 (centres undefined),1000 to 10000 nM,> 40000 nM,–
O=C(NCC(O)CN1Cc2ccccc2C1)c1cccc(NC2CCOCC2)c1 (centres undefined),101 to 1000 nM,–,101 to 1000 nM
N#CCc1cccc(-c2cccc(OCC(O)CN3CCc4ccccc4C3)c2)c1 (centres undefined),101 to 1000 nM,–,1000 to 10000 nM
CC(OCC(O)CN1CCc2ccccc2C1)c1cccnc1 (centres undefined),10000 to 40000 nM,> 40000 nM,–
N#Cc1ccccc1OCC(=O)NCC(O)CN1CCc2ccccc2C1 (centres undefined),101 to 1000 nM,10000 to 50000 nM,101 to 1000 nM

SMILES,IC50 [1],EC50 [2],EC50 [3]
CN1CCN(c2ccccc2OCC(=O)NC[C@@H](O)CN2CCc3ccccc3C2)CC1,1000 to 10000 nM,–,1000 to 10000 nM
O=C(COc1cccc2cccnc12)NCC(O)CN1CCc2ccccc2C1 (centres undefined),< 100 nM,101 to 1000 nM,< 100 nM
COc1cc(Cl)cc(-c2cccc(OCC(O)CN3CCc4ccccc4C3)c2)c1 (centres undefined),101 to 1000 nM,–,> 20000 nM
OC(COC1Cc2ccccc2C1)CN1CCc2ccccc2C1 (centres undefined),1000 to 10000 nM,> 40000 nM,–
CC(C)(C)OC(=O)Nc1cccc(C(=O)NCC(O)CN2Cc3ccccc3C2)c1 (centres undefined),101 to 1000 nM,–,1000 to 10000 nM
Cc1ccccc1OCC(=O)NCC(O)CN1CCc2ccccc2C1 (centres undefined),101 to 1000 nM,1000 to 10000 nM,101 to 1000 nM
O=C(NC[C@@H](O)CN1CCc2ccccc2C1)Oc1ccccc1,< 100 nM,–,1000 to 10000 nM
O=C(COc1cccc(F)c1)NCC(O)CN1CCc2ccccc2C1 (centres undefined),101 to 1000 nM,10000 to 50000 nM,101 to 1000 nM
CS(=O)(=O)c1ccccc1OCC(=O)NCC(O)CN1Cc2ccccc2C1 (centres undefined),101 to 1000 nM,–,101 to 1000 nM
CC(C)(C)OC(=O)N1CCCC(OCC(O)CN2CCc3ccccc3C2)C1 (centres undefined),1000 to 10000 nM,> 40000 nM,–
Cn1cnc2ccc(NCC(=O)NCC(O)CN3CCc4ccccc4C3)cc21 (centres undefined),101 to 1000 nM,–,1000 to 10000 nM
CN(C)CCOc1ccccc1OCC(=O)NC[C@@H](O)CN1CCc2ccccc2C1,101 to 1000 nM,–,1000 to 10000 nM
O=c1cc(-c2ccccc2)ccn1C[C@@H](O)CN1CCc2ccccc2C1,–,–,> 50000 nM
OC(COCC1CC1)CN1CCc2ccccc2C1 (centres undefined),1000 to 10000 nM,> 40000 nM,–
OC(COCC1CCCO1)CN1CCc2ccccc2C1 (centres undefined),10000 to 40000 nM,> 40000 nM,–
OC(COC1CCCCCC1)CN1CCc2ccccc2C1 (centres undefined),1000 to 10000 nM,> 40000 nM,–
OC(COCC1CCNC1)CN1CCc2ccccc2C1 (centres undefined),> 40000 nM,> 40000 nM,–
O=C(NCC(O)CN1CCc2ccccc2C1)c1cccc(NC2CCOC2)c1 (centres undefined),< 100 nM,–,101 to 1000 nM
O=C1CN(c2ccccc2F)CCN1CC(O)CN1CCc2ccccc2C1 (centres undefined),–,–,> 50000 nM
Cc1cn(C)c2cccc(OCC(=O)NCC(O)CN3CCc4ccccc4C3)c12 (centres undefined),< 100 nM,–,101 to 1000 nM
OC(COc1cccc(-c2ccccc2F)c1)CN1CCc2ccccc2C1 (centres undefined),101 to 1000 nM,–,1000 to 10000 nM
Cc1ccccc1N1CCN(CC(O)CN2CCc3ccccc3C2)C(=O)C1 (centres undefined),–,–,> 50000 nM

SMILES,IC50 [1],EC50 [2],EC50 [3]
OC(COC1CCNCC1)CN1CCc2ccccc2C1 (centres undefined),> 40000 nM,> 40000 nM,–
O=C(Nc1cccc(OCC(O)CN2CCc3ccccc3C2)c1)c1cccnn1 (centres undefined),1000 to 10000 nM,–,1000 to 10000 nM
CN1CCC(OCC(O)CN2CCc3ccccc3C2)C1 (centres undefined),> 40000 nM,> 40000 nM,–
O=C(Nc1cccc(OCC(O)CN2CCc3ccccc3C2)c1)c1cccnc1 (centres undefined),1000 to 10000 nM,–,1000 to 10000 nM
OC(COCC1CCCCO1)CN1CCc2ccccc2C1 (centres undefined),> 40000 nM,> 40000 nM,–
Cn1nccc1-c1cccc(CC(=O)NCC(O)CN2CCc3ccccc3C2)c1 (centres undefined),101 to 1000 nM,–,101 to 1000 nM
CCn1ccnc1COCC(O)CN1CCc2ccccc2C1 (centres undefined),> 40000 nM,> 40000 nM,–
O=C(NCC(O)CN1CCc2ccccc2C1)c1cccc(OC2CCOCC2)c1 (centres undefined),101 to 1000 nM,–,101 to 1000 nM
Cn1ccnc1-c1ccccc1OCC(=O)NCC(O)CN1CCc2ccccc2C1 (centres undefined),101 to 1000 nM,–,1000 to 10000 nM
O=C(COc1ccccc1F)NCC(O)CN1CCc2ccccc2C1 (centres undefined),101 to 1000 nM,10000 to 50000 nM,101 to 1000 nM
Cn1cc2ccc(-c3cccc(OCC(O)CN4CCc5ccccc5C4)c3)cc2n1 (centres undefined),101 to 1000 nM,–,> 20000 nM
OC(COC1CCCNC1)CN1CCc2ccccc2C1 (centres undefined),> 40000 nM,> 40000 nM,–
N#Cc1cccc(OCC(=O)NCC(O)CN2CCc3ccccc3C2)c1 (centres undefined),101 to 1000 nM,10000 to 50000 nM,101 to 1000 nM
O=c1cc(-c2ccccc2)ccn1C[C@H](O)CN1CCc2ccccc2C1,–,–,> 50000 nM
O=C(Cc1cccc2cccnc12)NCC(O)CN1CCc2ccccc2C1 (centres undefined),101 to 1000 nM,–,1000 to 10000 nM
Cc1ccc(OCC(=O)NCC(O)CN2CCc3ccccc3C2)cc1 (centres undefined),101 to 1000 nM,10000 to 50000 nM,10000 to 50000 nM
OC(COC1CCOCC1)CN1CCc2ccccc2C1 (centres undefined),10000 to 40000 nM,> 40000 nM,–
COc1ccc(OCC(=O)NCC(O)CN2CCc3ccccc3C2)cc1 (centres undefined),101 to 1000 nM,10000 to 50000 nM,101 to 1000 nM
O=C1CN(c2ccc(CO)cc2)CCN1CC(O)CN1CCc2ccccc2C1 (centres undefined),101 to 1000 nM,–,1000 to 10000 nM
O=C1CN(c2cccc(Cl)c2)CCN1CC(O)CN1CCc2ccccc2C1 (centres undefined),< 100 nM,–,1000 to 10000 nM
